According to ChEMBL document CHEMBL1909046, “DrugMatrix in vitro pharmacology data”:

Key:
[1] = biological target: Vascular endothelial growth factor receptor 1 (Homo sapiens, UniProt P17948); experiment: biochemical; assay type: cell-based, HUVEC; details: huvec; note: in other assays of this panel Not Active means under 50% inhibition at 10 µM
[2] = biological target: Prostaglandin G/H synthase 1 (Homo sapiens, UniProt P23219); experiment: biochemical; assay type: tissue-based, Platelet;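 note: inhibition of COX-1 enzyme activity, with arachidonic acid supplied as substrate; in other assays of this panel Not Active means under 50% inhibition at 10 µM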
Prostaglandin G/H synthase 1, sequence (P23219 whole entry): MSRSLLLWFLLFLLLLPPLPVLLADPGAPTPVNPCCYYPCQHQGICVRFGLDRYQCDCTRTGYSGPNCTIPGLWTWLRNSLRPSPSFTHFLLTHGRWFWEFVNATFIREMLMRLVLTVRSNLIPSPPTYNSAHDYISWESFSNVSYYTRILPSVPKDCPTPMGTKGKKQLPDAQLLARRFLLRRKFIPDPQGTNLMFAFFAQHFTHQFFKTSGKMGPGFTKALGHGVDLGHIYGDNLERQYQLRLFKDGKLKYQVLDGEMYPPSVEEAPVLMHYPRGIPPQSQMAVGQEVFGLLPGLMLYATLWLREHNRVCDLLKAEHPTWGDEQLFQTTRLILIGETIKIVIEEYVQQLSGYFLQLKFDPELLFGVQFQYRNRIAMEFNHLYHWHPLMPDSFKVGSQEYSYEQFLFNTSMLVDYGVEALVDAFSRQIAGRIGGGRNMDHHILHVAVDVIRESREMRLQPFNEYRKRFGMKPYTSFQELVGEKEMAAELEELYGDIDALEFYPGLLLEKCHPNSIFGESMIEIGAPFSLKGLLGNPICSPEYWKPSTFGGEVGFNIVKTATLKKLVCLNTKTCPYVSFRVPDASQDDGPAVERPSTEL

[3] = DRUGMATRIX: Glutamate, Kainate radioligand binding (ligand: [3H] Kainic acid); assay type: cell membranes, Rattus norvegicus, Wistar, Brain, Membrane; details: Not Active = under 50% inhibition at 10 µM
[4] = biological target: T1, Amine oxidase [flavin-containing] A (Homo sapiens, UniProt P21397); experiment: DRUGMATRIX: Monoamine Oxidase MAO-A enzyme inhibition (substrate: Kynuramine); parameters: species or system BTI-TN-5B1-4; details: bti-tn-5b1-4; Not Active = under 50% inhibition at 10 µM
T1 sequence (P21397 whole entry): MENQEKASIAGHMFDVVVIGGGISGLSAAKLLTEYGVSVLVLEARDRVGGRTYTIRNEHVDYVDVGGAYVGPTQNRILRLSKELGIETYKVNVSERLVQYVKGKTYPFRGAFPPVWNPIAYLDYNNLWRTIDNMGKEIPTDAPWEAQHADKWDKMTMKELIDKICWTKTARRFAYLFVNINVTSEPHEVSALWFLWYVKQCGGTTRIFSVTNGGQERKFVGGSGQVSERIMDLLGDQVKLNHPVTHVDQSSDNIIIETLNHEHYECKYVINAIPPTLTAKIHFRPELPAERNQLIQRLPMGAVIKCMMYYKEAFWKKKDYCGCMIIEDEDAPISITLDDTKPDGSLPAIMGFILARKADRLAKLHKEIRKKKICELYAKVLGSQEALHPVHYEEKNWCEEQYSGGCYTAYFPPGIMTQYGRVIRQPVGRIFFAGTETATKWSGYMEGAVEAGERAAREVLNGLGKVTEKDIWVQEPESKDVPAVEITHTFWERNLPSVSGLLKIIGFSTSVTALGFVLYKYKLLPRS

[5] = biological target: T2, Nitric oxide synthase, inducible (Mus musculus, UniProt P29477); parameters: species or system Escherichia coli;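 note: inhibition of iNOS enzyme activity measured with L-arginine as substrate; in other assays of this panel Not Active means under 50% inhibition at 10 µM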
T2 sequence (P29477 whole entry): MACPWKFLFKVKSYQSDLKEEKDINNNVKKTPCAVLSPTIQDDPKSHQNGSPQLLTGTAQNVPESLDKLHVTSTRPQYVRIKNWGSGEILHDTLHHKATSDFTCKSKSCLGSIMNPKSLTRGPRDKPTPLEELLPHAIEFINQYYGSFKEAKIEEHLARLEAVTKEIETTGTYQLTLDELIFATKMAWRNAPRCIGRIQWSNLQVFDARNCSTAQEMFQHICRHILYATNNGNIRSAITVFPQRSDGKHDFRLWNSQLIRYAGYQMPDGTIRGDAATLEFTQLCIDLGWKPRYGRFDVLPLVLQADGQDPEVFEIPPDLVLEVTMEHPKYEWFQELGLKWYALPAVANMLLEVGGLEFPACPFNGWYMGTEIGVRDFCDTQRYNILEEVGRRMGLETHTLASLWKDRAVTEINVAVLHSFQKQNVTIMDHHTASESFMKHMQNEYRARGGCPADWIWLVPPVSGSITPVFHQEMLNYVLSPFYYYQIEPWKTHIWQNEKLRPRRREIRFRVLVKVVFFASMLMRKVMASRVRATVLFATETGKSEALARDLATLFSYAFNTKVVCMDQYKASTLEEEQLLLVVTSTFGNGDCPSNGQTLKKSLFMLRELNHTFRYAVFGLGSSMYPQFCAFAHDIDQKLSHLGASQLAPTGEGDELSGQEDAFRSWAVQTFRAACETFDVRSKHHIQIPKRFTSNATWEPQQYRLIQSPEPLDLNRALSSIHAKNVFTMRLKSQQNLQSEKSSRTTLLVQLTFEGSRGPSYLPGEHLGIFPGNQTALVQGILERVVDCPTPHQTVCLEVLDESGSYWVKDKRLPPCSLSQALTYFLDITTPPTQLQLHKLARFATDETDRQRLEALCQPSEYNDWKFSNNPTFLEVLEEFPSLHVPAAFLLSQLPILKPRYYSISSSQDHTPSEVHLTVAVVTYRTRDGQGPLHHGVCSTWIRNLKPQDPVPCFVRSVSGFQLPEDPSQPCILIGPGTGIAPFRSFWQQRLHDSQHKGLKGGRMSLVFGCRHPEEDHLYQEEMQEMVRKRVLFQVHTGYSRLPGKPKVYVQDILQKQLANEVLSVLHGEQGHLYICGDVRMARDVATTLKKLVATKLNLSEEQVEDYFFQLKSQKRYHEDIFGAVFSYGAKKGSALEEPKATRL

[6] = biological target: Mitogen-activated protein kinase 1 (Homo sapiens, UniProt P28482); experiment: DRUGMATRIX: Protein Serine/Threonine Kinase, ERK2 enzyme inhibition (substrate: Myelin Basic Protein); parameters: species or system Escherichia coli; details: Not Active = under 50% inhibition at 10 µM
Mitogen-activated protein kinase 1, sequence (P28482 whole entry): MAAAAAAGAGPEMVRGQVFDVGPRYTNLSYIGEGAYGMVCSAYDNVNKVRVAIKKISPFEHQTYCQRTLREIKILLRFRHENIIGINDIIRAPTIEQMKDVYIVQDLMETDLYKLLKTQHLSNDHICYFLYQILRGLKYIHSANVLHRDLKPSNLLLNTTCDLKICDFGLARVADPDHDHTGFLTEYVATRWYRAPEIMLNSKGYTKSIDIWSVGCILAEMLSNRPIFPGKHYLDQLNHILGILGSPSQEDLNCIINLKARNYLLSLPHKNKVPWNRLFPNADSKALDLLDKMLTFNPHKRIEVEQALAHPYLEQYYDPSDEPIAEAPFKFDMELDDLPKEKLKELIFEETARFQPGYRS

[7] = biological target: Mitogen-activated protein kinase 14 (Homo sapiens, UniProt Q16539); parameters: species or system Escherichia coli;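 note: inhibition of p38alpha enzyme activity in a biochemical kinase assay, with myelin basic protein serving as substrate; in other assays of this panel Not Active means under 50% inhibition at 10 µM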
Mitogen-activated protein kinase 14, sequence (Q16539 whole entry): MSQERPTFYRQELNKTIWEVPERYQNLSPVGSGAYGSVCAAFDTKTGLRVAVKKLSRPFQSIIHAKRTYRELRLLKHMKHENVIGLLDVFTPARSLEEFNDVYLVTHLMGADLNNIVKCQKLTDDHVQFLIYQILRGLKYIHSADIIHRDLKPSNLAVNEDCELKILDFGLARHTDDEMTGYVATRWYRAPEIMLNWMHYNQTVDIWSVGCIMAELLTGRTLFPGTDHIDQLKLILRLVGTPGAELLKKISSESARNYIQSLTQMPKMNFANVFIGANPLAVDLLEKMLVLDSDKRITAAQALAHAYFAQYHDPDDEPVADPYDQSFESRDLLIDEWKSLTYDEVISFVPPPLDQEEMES

Vascular endothelial growth factor receptor 1, sequence (P17948 whole entry): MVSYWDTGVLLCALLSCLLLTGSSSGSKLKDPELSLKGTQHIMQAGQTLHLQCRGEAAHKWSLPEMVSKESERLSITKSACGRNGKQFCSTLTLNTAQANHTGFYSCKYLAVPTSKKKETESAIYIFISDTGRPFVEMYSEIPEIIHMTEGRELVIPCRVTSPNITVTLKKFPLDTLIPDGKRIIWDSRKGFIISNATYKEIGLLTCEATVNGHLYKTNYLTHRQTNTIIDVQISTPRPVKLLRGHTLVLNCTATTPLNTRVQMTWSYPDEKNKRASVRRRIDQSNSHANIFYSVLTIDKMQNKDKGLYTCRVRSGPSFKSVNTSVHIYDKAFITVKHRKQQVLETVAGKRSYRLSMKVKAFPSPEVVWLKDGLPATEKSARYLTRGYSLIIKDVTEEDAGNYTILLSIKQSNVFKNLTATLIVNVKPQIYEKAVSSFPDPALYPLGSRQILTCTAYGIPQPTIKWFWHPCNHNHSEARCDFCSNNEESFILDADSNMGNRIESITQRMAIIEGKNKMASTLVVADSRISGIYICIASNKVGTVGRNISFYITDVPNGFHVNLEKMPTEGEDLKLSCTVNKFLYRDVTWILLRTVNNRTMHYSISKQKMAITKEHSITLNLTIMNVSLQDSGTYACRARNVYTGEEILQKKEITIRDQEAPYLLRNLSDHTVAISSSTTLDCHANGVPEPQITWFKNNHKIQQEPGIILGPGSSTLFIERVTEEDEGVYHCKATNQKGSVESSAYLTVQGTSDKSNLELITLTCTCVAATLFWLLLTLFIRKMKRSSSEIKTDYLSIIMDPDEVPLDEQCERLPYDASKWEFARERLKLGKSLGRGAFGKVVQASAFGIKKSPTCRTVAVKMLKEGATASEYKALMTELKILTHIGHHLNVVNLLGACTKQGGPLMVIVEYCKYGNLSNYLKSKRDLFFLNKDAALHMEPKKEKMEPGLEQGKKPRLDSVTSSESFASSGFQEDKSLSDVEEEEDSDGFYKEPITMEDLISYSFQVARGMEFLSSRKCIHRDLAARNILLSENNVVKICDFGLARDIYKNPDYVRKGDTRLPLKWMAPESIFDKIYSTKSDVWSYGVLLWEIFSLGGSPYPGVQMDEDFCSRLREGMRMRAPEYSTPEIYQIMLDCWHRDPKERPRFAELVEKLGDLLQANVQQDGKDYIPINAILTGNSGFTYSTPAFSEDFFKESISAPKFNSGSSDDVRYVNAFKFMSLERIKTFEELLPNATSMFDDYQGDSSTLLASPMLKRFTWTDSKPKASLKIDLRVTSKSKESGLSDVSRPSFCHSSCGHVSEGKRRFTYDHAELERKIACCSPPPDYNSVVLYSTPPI

CCOC(=O)C1=C(C)NC(C)=C(C(=O)OC)C1c1cccc(Cl)c1Cl (stereo not given) [FELODIPINE]
IC50 [1]: Not Active | IC50 ([2]; platelet): Not Active | IC50 [3]: Not Active | Ki [3]: Not Active | IC50 [4]: Not Active | IC50 [5]: Not Active | IC50 [6]: Not Active | IC50 [7]: Not Active

CC(C)C[C@H]1C(=O)N2CCC[C@H]2[C@]2(O)O[C@](NC(=O)[C@@H]3C=C4c5cccc6[nH]c(Br)c(c56)C[C@H]4N(C)C3)(C(C)C)C(=O)N12 [BROMOCRIPTINE]
IC50 [1]: Not Active | IC50 ([2]; platelet): Not Active | IC50 [3]: Not Active | Ki [3]: Not Active | IC50 [4]: Not Active | IC50 [5]: Not Active | IC50 [6]: Not Active | IC50 [7]: Not Active

CCOC(=O)[C@H](CCc1ccccc1)N[C@@H](C)C(=O)N1CCC[C@H]1C(=O)O
IC50 [1]: Not Active | IC50 ([2]; platelet): Not Active | IC50 [3]: Not Active | Ki [3]: Not Active | IC50 [4]: Not Active | IC50 [5]: Not Active | IC50 [6]: Not Active | IC50 [7]: Not Active

C[C@@H]1CC[C@H]2[C@@H](C)C(=O)O[C@@H]3O[C@@]4(C)CC[C@@H]1[C@]32OO4 [ARTEMISININ]
IC50 [1]: Not Active | IC50 ([2]; platelet): Not Active | IC50 [3]: Not Active | Ki [3]: Not Active | IC50 [4]: Not Active | IC50 [5]: Not Active | IC50 [6]: Not Active | IC50 [7]: Not Active

CN1C(=O)CN=C(c2ccccc2)c2cc(Cl)ccc21 [DIAZEPAM]
IC50 [1]: Not Active | IC50 ([2]; platelet): Not Active | IC50 [3]: Not Active | Ki [3]: Not Active | IC50 [4]: Not Active | IC50 [5]: Not Active | IC50 [6]: Not Active | IC50 [7]: Not Active

Nn1nnc2ccccc21
IC50 [1]: Not Active | IC50 ([2]; platelet): Not Active | IC50 [3]: Not Active | Ki [3]: Not Active | IC50 [4]: Not Active | IC50 [5]: Not Active | IC50 [6]: Not Active | IC50 [7]: Not Active

CC(C)(CO)C(O)C(=O)NCCCO (stereo not given) [PANTHENOL]
IC50 [1]: Not Active | IC50 ([2]; platelet): Not Active | IC50 [3]: Not Active | Ki [3]: Not Active | IC50 [4]: Not Active | IC50 [5]: Not Active | IC50 [6]: Not Active | IC50 [7]: Not Active

O=C(O)Cc1ccc(-c2ccccc2)cc1 [FELBINAC]
IC50 [1]: Not Active | IC50 ([2]; read-out: IC50): 894 nM | IC50 [3]: Not Active | Ki [3]: Not Active | IC50 [4]: Not Active | IC50 [5]: Not Active | IC50 [6]: Not Active | IC50 [7]: Not Active

O=C(O)c1cccnc1 [NIACIN]
IC50 [1]: Not Active | IC50 ([2]; platelet): Not Active | IC50 [3]: Not Active | Ki [3]: Not Active | IC50 [4]: Not Active | IC50 [5]: Not Active | IC50 [6]: Not Active | IC50 [7]: Not Active

CC[C@H]1OC(=O)[C@H](C)[C@@H](O[C@H]2C[C@@](C)(OC)[C@@H](O)[C@H](C)O2)[C@H](C)[C@@H](O[C@@H]2O[C@H](C)C[C@H](N(C)C)[C@H]2O)[C@](C)(OC)C[C@@H](C)C(=O)[C@H](C)[C@@H](O)[C@]1(C)O [CLARITHROMYCIN]
IC50 [1]: Not Active | IC50 ([2]; platelet): Not Active | IC50 [3]: Not Active | Ki [3]: Not Active | IC50 [4]: Not Active | IC50 [5]: Not Active | IC50 [6]: Not Active | IC50 [7]: Not Active
